In PubChem BioAssay AID248 (DTP/NCI, 2004):
Where “and” joins values, the source holds several entries; their conditions need not be identical. Equal entries are not always repeated. Toxic doses and inconclusive results are not listed. Cut-off read from the data, not from the text of the source: active = T/C of 150% or more; inactive = T/C below 125%.

System: L1210 leukemia ip in BDF1 mice, survival T/C
Test: NCI In Vivo Anticancer Drug Screen. Data for tumor model L1210 Leukemia (intraperitoneal) in B6D2F1 (BDF1) mice
Settings: endpoint: mean survival time, higher = longer survival
Summary of the method: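 Transplantable tumor model; survival measured in treated vs vehicle control mice. Value = treated/control.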

[1] = dose: 100.0 mg/kg/injection, schedule: Q04DX002 (ip), vehicle: Klucel (hydroxypropylcellulose) (HPC)
[2] = dose: 200.0 mg/kg/injection, schedule: Q04DX002 (ip), vehicle: Klucel (hydroxypropylcellulose) (HPC)
[3] = dose: 400.0 mg/kg/injection, schedule: Q04DX002 (ip), vehicle: Klucel (hydroxypropylcellulose) (HPC)
[4] = dose: 100.0 mg/kg/injection, schedule: Q04DX003 (ip), vehicle: saline sonified
[5] = dose: 200.0 mg/kg/injection, schedule: Q04DX003 (ip), vehicle: saline sonified
[6] = dose: 400.0 mg/kg/injection, schedule: Q04DX003 (ip), vehicle: saline sonified
[7] = dose: 25.0 mg/kg/injection, schedule: Q04DX003 (ip), vehicle: saline
[8] = dose: 50.0 mg/kg/injection, schedule: Q04DX003 (ip), vehicle: saline
[9] = dose: 100.0 mg/kg/injection, schedule: Q04DX003 (ip), vehicle: saline
[10] = dose: 100.0 mg/kg/injection, schedule: Q01DX009 (ip), vehicle: saline with Tween-80
[11] = dose: 100.0 mg/kg/injection, schedule: Q04DX003 (ip), vehicle: saline with Tween-80
[12] = dose: 200.0 mg/kg/injection, schedule: Q01DX009 (ip), vehicle: saline with Tween-80
[13] = dose: 200.0 mg/kg/injection, schedule: Q04DX003 (ip), vehicle: saline with Tween-80
[14] = dose: 400.0 mg/kg/injection, schedule: Q01DX009 (ip), vehicle: saline with Tween-80
[15] = dose: 400.0 mg/kg/injection, schedule: Q04DX003 (ip), vehicle: saline with Tween-80
[16] = dose: 50.0 mg/kg/injection, schedule: Q01DX009 (ip), vehicle: Klucel (hydroxypropylcellulose) (HPC)
[17] = dose: 100.0 mg/kg/injection, schedule: Q01DX009 (ip), vehicle: Klucel (hydroxypropylcellulose) (HPC)
[18] = dose: 200.0 mg/kg/injection, schedule: Q01DX009 (ip), vehicle: Klucel (hydroxypropylcellulose) (HPC)
[19] = dose: 12.5 mg/kg/injection, schedule: Q01DX009 (ip), vehicle: saline
[20] = dose: 20.0 mg/kg/injection, schedule: Q01DX001 (ip), vehicle: saline
[21] = dose: 25.0 mg/kg/injection, schedule: Q01DX009 (ip), vehicle: saline
[22] = dose: 200.0 mg/kg/injection, schedule: Q04DX003 (ip), vehicle: saline
[23] = dose: 50.0 mg/kg/injection, schedule: Q01DX009 (ip), vehicle: saline

Measured: T/C

CC(C)=NNC(=O)CNc1ccc(Cl)c(C(F)(F)F)c1
inactive: [1] 97 % of control | [2] 104 % of control | [3] 111 % of control

[Cl][Ni][Cl].[NH-]CCN1CC1.[NH-]CCN1CC1
inactive: dose: 1.75 mg/kg/injection, schedule: Q01DX009 (ip), vehicle: saline 101 % of control | dose: 3.5 mg/kg/injection, schedule: Q01DX009 (ip), vehicle: saline 97 % of control | dose: 7.0 mg/kg/injection, schedule: Q01DX009 (ip), vehicle: saline 103 % of control | dose: 14.0 mg/kg/injection, schedule: Q01DX009 (ip), vehicle: saline 98 % of control

CCNC(=S)NCC
inactive: dose: 100.0 mg/kg/injection, schedule: Q04DX003 (ip), vehicle: carboxymethylcellulose (CMC) 98 % of control | dose: 200.0 mg/kg/injection, schedule: Q04DX003 (ip), vehicle: carboxymethylcellulose (CMC) 102 % of control | dose: 400.0 mg/kg/injection, schedule: Q04DX003 (ip), vehicle: carboxymethylcellulose (CMC) 107 % of control

COc1ccc2c(c1)[nH]c1c(C)nccc12
inactive: dose: 75.0 mg/kg/injection, schedule: Q01DX Z (ip), vehicle: saline 96 % of control | dose: 150.0 mg/kg/injection, schedule: Q01DX Z (ip), vehicle: saline 100 % of control | dose: 300.0 mg/kg/injection, schedule: Q01DX Z (ip), vehicle: saline 96 % of control and 108 % of control

CC1CC(C)(C)N=C(C(C)(C)c2ccccc2)O1 (stereo not given)
inactive: [4] 102 % of control | [5] 103 % of control | [6] 98 % of control

CCOC(=O)Cn1c(=O)ssc1=O
inactive: [7] 100 % of control | [8] 100 % of control | [9] 100 % of control

O=C(Nc1ccc2ccccc2c1)c1ccc(Cl)cc1
inactive: [10] 104 % of control and 92 % of control | dose: 100.0 mg/kg/injection, schedule: Q04DX002 (ip), vehicle: saline with Tween-80 94 % of control and 97 % of control | [11] 97 % of control | [12] 97 % of control and 98 % of control | dose: 200.0 mg/kg/injection, schedule: Q04DX002 (ip), vehicle: saline with Tween-80 100 % of control and 101 % of control | [13] 101 % of control | [14] 95 % of control and 111 % of control | dose: 400.0 mg/kg/injection, schedule: Q04DX002 (ip), vehicle: saline with Tween-80 89 % of control and 90 % of control | [15] 97 % of control

CCOCC(C(=O)OCC)C(=O)OCC
inactive: [10] 111 % of control | [12] 111 % of control | [14] 97 % of control

CCOC(CNC(=O)c1cccc([N+](=O)[O-])c1)OCC
inactive: [16] 87 % of control | [17] 98 % of control | [18] 102 % of control

CC(C)CC(=O)Nc1ccc(S(=O)(=O)Cl)cc1
inactive: [10] 106 % of control | [11] 92 % of control | [12] 101 % of control | [13] 86 % of control | [14] 94 % of control | [15] 89 % of control

CCN(CC)CCCC(C)Nc1ncnc(N)c1N (stereo not given)
inactive: dose: 12.5 mg/kg/injection, schedule: Q04DX003 (ip), vehicle: Klucel (hydroxypropylcellulose) (HPC) 93 % of control | dose: 25.0 mg/kg/injection, schedule: Q04DX003 (ip), vehicle: Klucel (hydroxypropylcellulose) (HPC) 91 % of control | dose: 50.0 mg/kg/injection, schedule: Q04DX003 (ip), vehicle: Klucel (hydroxypropylcellulose) (HPC) 102 % of control

O=C(O)CNC1CSSC1
inactive: dose: 25.0 mg/kg/injection, schedule: Q01DX009 (ip), vehicle: water 106 % of control | dose: 50.0 mg/kg/injection, schedule: Q01DX009 (ip), vehicle: water 106 % of control

COC(=O)C1=COC(C)C(C=O)C1CC(=O)O (stereo not given)
inactive: [19] 108 % of control | [20] 103 % of control | [21] 103 % of control | [7] 110 % of control | dose: 40.0 mg/kg/injection, schedule: Q01DX001 (ip), vehicle: saline 118 % of control | [8] 111 % of control | dose: 80.0 mg/kg/injection, schedule: Q01DX001 (ip), vehicle: saline 118 % of control

N#CC(=N)N1CCCCC1
inactive: [9] 98 % of control | [22] 112 % of control | dose: 400.0 mg/kg/injection, schedule: Q04DX003 (ip), vehicle: saline 109 % of control

CC(N)CC12CC3CC(CC(C3)C1)C2 (stereo not given)
inactive: dose: 25.0 mg/kg/injection, schedule: Q04DX002 (ip), vehicle: saline 92 % of control | dose: 50.0 mg/kg/injection, schedule: Q04DX002 (ip), vehicle: saline 95 % of control | dose: 100.0 mg/kg/injection, schedule: Q04DX002 (ip), vehicle: saline 97 % of control

NNC(=O)CCC(N)C(=O)O (stereo not given)
inactive: dose: 10.77 mg/kg/injection, schedule: Q01DX Z (ip), vehicle: carboxymethylcellulose (CMC) 94 % of control | dose: 21.53 mg/kg/injection, schedule: Q01DX Z (ip), vehicle: carboxymethylcellulose (CMC) 95 % of control | dose: 43.05 mg/kg/injection, schedule: Q01DX Z (ip), vehicle: carboxymethylcellulose (CMC) 104 % of control | dose: 86.1 mg/kg/injection, schedule: Q01DX Z (ip), vehicle: carboxymethylcellulose (CMC) 111 % of control and 124 % of control

[O-][n+]1c(C(Br)(Br)Br)ccc2ccccc21
inactive: [16] 97 % of control | [17] 95 % of control | [18] 106 % of control

CCN(CC)CCN(C)CCN(CC)CC
inactive: [23] 91 % of control | dose: 100.0 mg/kg/injection, schedule: Q01DX009 (ip), vehicle: saline 102 % of control | [9] 93 % of control | dose: 200.0 mg/kg/injection, schedule: Q01DX009 (ip), vehicle: saline 101 % of control | [22] 98 % of control

CCCCCCCCC/C(=N\Nc1ccc([N+](=O)[O-])cc1[N+](=O)[O-])c1ccccc1
inactive: [4] 108 % of control | [5] 98 % of control | [6] 108 % of control

NC(=O)C(N)Cc1ccc(OCc2ccccc2)c(OCc2ccccc2)c1 (stereo not given)
inactive: dose: 100.0 mg/kg/injection, schedule: Q01DX001 (ip), vehicle: saline with Tween-80 92 % of control | [10] 101 % of control | dose: 200.0 mg/kg/injection, schedule: Q01DX001 (ip), vehicle: saline with Tween-80 94 % of control | [12] 95 % of control | dose: 400.0 mg/kg/injection, schedule: Q01DX001 (ip), vehicle: saline with Tween-80 86 % of control

Cn1cnc([N+](=O)[O-])c1/N=C/c1ccccc1
inactive: dose: 50.0 mg/kg/injection, schedule: Q01DX005 (ip), vehicle: saline 98 % of control | dose: 100.0 mg/kg/injection, schedule: Q01DX005 (ip), vehicle: saline 100 % of control | dose: 200.0 mg/kg/injection, schedule: Q01DX005 (ip), vehicle: saline 104 % of control

NC(CC(=O)O)C(=O)OCc1ccccc1 (stereo not given)
inactive: [17] 95 % of control | [1] 92 % of control | [18] 95 % of control | [2] 103 % of control | [3] 95 % of control

Nc1ccc(C(=O)OCCCN2CCCCC2)cc1
inactive: [19] 101 % of control | [21] 97 % of control | [23] 101 % of control

CSC(c1ccccc1F)=[N+]1CCCCC1
inactive: dose: 5.0 mg/kg/injection, schedule: Q01DX001 (ip), vehicle: saline 100 % of control | dose: 10.0 mg/kg/injection, schedule: Q01DX001 (ip), vehicle: saline 96 % of control | [20] 95 % of control

COc1cccc(CCCCO)c1
inactive: dose: 50.0 mg/kg/injection, schedule: Q01DX009 (ip), vehicle: saline with Tween-80 91 % of control | [10] 91 % of control

NC(=O)N/N=C(/CBr)c1ccc(-c2ccccc2)cc1
inactive: [7] 101 % of control | [8] 95 % of control | dose: 100.0 mg/kg/injection, schedule: Q01DX001 (ip), vehicle: saline 96 % of control | [9] 91 % of control

CCCCC[n+]1ccc(C(N)=O)cc1
inactive: [9] 105 % of control | [22] 100 % of control
